The values that follow come from patent US20180185510A1, “ANTIBODY DRUG CONJUGATES OF KINESIN SPINDEL PROTEIN (KSP) INHIBITORS WITH ANTI-B7H3-ANTIBODIES” (BAYER PHARMA AKTIENGESELLSCHAFT, priority 2015, published 2018).

In one data set the test system is KPL4. The data set can be described thus: MTT assay, cytotoxicity of metabolites, KPL4. The data set is classed as cell-based. The following applies: 96 h incubation. The procedure:
(§1) The cells were cultivated according to the standard method using the growth media listed under C-1. The test is carried out by detaching the cells with a solution of Accutase in PBS (Biochrom AG #L2143), pelleting, resuspending in culture medium, counting and sowing into a 96-well culture plate with white bottom (Costar #3610) (NCI H292: 2500 cells/well in a total volume of 100 μl). The cells were then incubated in an incubator at 37° C. and 5% carbon dioxide. After 48 h, the medium was replaced. The metabolites in 10 μl of culture medium in concentrations from 10^−5M to 10^−13M were then pipetted to the cells (in triplicate), and the assay was then incubated in an incubator at 37° C. and 5% carbon dioxide. […] To this end, the MTT reagent was incubated with the cells for 4 h, followed by lysis of the cells overnight by addition of the detergent. The dye formed was detected at 570 nm (Infinite M1000 pro, Tecan). The measured data were used to calculate the IC50 of the growth inhibition using the DRC (dose response curve). The proliferation of cells which were not treated with test substance but were otherwise identically treated was defined as the 100% figure.
On the technique in general: Tetrazolium dyes change colour on reduction, which living cells bring about.

The test system of data set [1] is NCI-H292: human mucoepidermoid lung carcinoma cells. The data set can be described thus: MTT assay, cytotoxicity of metabolites, NCI-H292. The data set is classed as cell-based. The procedure: NCI-H292: human mucoepidermoid lung carcinoma cells, ATCC-CRL-1848, standard medium: RPMI 1640 (Biochrom; #FG1215, stab. glutamine)+10% FCS (Biochrom; #S0415).
as §1

In the next data set the test system is Caco-2 cells. The data set can be described thus: Flux assay for cell permeability using Caco-2 cells. Conditions: Caco-2, basal to apical, 2 hours.
Experiment in data set [2]: as above
Conditions: human, Caco-2.

In data set [3] the test system is Raji: human Burkitt's lymphoma cells. As to the kind of experiment: CTG assay, cytotoxic effects of the anti-B7H3 ADCs, Raji. The data set is classed as cell-based. The following applies: growth inhibition vs day 0, 72 h incubation, B7H3-negative cells. Here is the method:
(§2) The analysis of the cytotoxic effects of the anti-B7H3 ADCs was carried out with various cell lines:
(§3) The cells were cultivated by the standard method as stated by the American Tissue Culture Collection (ATCC) for the cell lines in question.
(§4) The cells were cultivated according to the standard method using the growth media listed under C-1. […] The cells were then incubated in an incubator at 37° C. and 5% carbon dioxide. In a parallel plate, the cell vitality was determined at the start of the drug treatment (day 0) using the Cell Titer Glow (CTG) Luminescent Cell Viability Assay (Promega #G7573 and #G7571). To this end, 100 μl of the substrate were added per cell batch, the plates were then covered with aluminium foil, shaken on the plate shaker at 180 rpm for 2 minutes, allowed to stand on the laboratory bench for 8 minutes and then measured using a luminometer (Victor X2, Perkin Elmer). The substrate detects the ATP content in the living cells, generating a luminescence signal the height of which is directly proportional to the vitality of the cells. […] From the measured data, the IC50 of the growth inhibition in comparison to day 0 was calculated using the DRC (dose response curve) analysis spreadsheets with a 4-parameter fit. […]

For data set [4], the system named is Caki-2: human renal carcinoma cells. The data set can be described thus: CTG assay, cytotoxic effects of the anti-B7H3 ADCs, Caki-2. The data set is classed as cell-based. The following applies: growth inhibition vs day 0, 72 h incubation, B7H3-positive cells.
Excerpt: Caki-2: human renal carcinoma cells, ATCC-HTB-27, standard medium: DMEM/Ham's F12 (#FG4815, Biochrom AG)+10% FCS (#F2442, Sigma), B7H3-positive.
The subject of data set [5] is A498: human renal carcinoma cells. The data set can be described thus: CTG assay, cytotoxic effects of the anti-B7H3 ADCs, A498. The data set is classed as cell-based. Conditions: growth inhibition vs day 0, 72 h incubation, B7H3-positive cells. The procedure: as §2, §3, §4
For data set [6], the system named is MCF-7: human breast cancer cells. As to the kind of experiment: CTG assay, cytotoxic effects of the anti-B7H3 ADCs, MCF-7. The data set is classed as cell-based. The following applies: MCF7, growth inhibition vs day 0, 72 h incubation, B7H3-positive cells. Here is the method: as §2, §3, §4
For data set [7], the target named is T1, human B7H3 (RnDSystems, 2318-B3-050/CF) (human, UniProt Q5ZPR3 29-461).
T1 construct: Bought antigen, detected with an anti-His HRP antibody, so a His tag is implied
T1 sequence (looked up): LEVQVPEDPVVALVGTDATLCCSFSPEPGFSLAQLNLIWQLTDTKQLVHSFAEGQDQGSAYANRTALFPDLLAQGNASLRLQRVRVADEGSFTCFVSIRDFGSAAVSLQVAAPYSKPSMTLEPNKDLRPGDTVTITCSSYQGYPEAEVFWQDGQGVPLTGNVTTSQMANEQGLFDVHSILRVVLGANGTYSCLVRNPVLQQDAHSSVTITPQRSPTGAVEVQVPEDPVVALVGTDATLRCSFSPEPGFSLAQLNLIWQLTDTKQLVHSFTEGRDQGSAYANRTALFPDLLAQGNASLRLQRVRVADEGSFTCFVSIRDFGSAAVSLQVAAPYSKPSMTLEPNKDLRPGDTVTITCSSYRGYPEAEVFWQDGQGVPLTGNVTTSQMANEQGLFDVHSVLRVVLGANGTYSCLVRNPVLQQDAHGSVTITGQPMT
As to the kind of experiment: ELISA; antibody captured on anti-human IgG Fc, antigen 37 ng/ml, anti-His HRP / Amplex Red. The procedure:
(§5) TPP5706 was synthesized as described above. Binding of TPP5706 to human B7H3 and to human B7H2 and B7H4 was characterized using ELISAs. […] After washing once with PBS, 0.05% Tween, the plate was blocked with 100% Smart Block (Candor) for one hour at 37° C. The antibody to be tested (e.g. TPP5706 or one of its derivatives) was then attached to the plate (2 μg/ml IgG in PBS, 0.05% Tween, 10% Smart Block; 1 hour, room temperature). […] After washing three times, the plate was incubated with Amplex Red for 30 minutes and then read.
A general note: In an ELISA, binding on a coated surface is turned into a signal by an enzyme label.

Data set [8] addresses T2, human B7H2 (RnDSystems, 8206-B7) (human, UniProt O75144 19-258, limits assumed).
T2 construct: Bought antigen, detected with an anti-His HRP antibody
T2 sequence (looked up): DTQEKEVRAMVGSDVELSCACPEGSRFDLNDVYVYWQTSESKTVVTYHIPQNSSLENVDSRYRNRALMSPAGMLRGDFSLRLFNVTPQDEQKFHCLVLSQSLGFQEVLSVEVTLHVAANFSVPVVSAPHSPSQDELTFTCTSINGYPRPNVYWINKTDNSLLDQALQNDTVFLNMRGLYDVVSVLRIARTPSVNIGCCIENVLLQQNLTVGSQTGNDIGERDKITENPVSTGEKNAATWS
Described as above. The procedure:
as §5

Data set [9] addresses T3, human B7H4 (RnDSystems, 6576-B7) (human, UniProt Q7Z7D3 29-258, limits assumed).
T3 construct: Bought antigen, detected with an anti-His HRP antibody
T3 sequence (looked up): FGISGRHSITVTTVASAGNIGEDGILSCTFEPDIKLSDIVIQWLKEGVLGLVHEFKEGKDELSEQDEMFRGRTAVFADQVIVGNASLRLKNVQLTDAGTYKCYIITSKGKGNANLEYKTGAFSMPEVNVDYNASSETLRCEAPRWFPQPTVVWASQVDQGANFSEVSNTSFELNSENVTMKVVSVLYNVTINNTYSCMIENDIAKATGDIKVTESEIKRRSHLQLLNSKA
The data set is described as above. The procedure:
as §5

Take `CC(C)(C)[C@H](c1cc(-c2cc(F)ccc2F)cn1Cc1ccccc1)N(CC[C@H](N)C(=O)NC(CCC(=O)O)C(=O)O)C(=O)CO.O=C(O)C(F)(F)F` (stereo in doubt) [Example M25, N-{(2S)-2-Amino-4-[{(1R)-1-[1-benzyl-4-(2,5-difluorophenyl)-1H-pyrrol-2-yl]-2,2-dimethylpropyl}(glycoloyl)amino]butanoyl}-L-glutamic acid-trifluoroacetic acid (1:1)]: the IC50 (usually the concentration that inhibits the measured activity by half) in the data set on KPL4 (KPL4) turned out to be 500 nM; in data set [1] (NCI-H292, 96 h incubation), 500 nM. Besides, the “Papp (B-A)” value with Caco-2 cells turned out to be 0.81 ×10⁻⁶ cm/s.
In the case of `CC(C)(C)C(c1cc(-c2cc(F)ccc2F)cn1Cc1ccccc1)N(CC[C@H](N)C(=O)NCCNC(=O)CN1C(=O)CC(SC[C@H](N)C(=O)O)C1=O)C(=O)CO.O=C(O)C(F)(F)F` (stereo partly drawn) [Example M1, S-[1-(2-{[2-({(2S)-2-Amino-4-[{(1R)-1-[1-benzyl-4-(2,5-difluorophenyl)-1H-pyrrol-2-yl]-2,2-dimethylpropyl}(glycoloyl)amino]butanoyl}amino)ethyl]amino}-2-oxoethyl)-2,5-dioxopyrrolidin-3-yl]-L-cysteine/trifluoroacetic acid (1:1)], the IC50 in the data set on KPL4 (KPL4, 96 h) was 500 nM; in [1] (NCI-H292, 96 h, 96 h incubation), 500 nM. The Papp B→A (in general, the apparent permeability from the basolateral to the apical side of a cell layer) at 2 h in data set [2] stood at 0.78 ×10⁻⁶ cm/s.
Take `CC(C)(C)[C@H](c1cc(-c2cc(F)ccc2F)cn1Cc1ccccc1)N(CCCN)C(=O)CO` [Example M09, N-(3-Aminopropyl)-N-{(1R)-1-[1-benzyl-4-(2,5-difluorophenyl)-1H-pyrrol-2-yl]-2,2-dimethylpropyl}-2-hydroxyacetamide]: the IC50 came out at 0.015 nM in data set [3], 0.0975 nM in [4], 0.0165 nM in data set [5] and 0.015 nM in [6].

B1: TPP-5706 (antibody, human IgG1, kappa, V domains shown)
VH: QVQLQQPGAELVKPGASVKMSCKASGYTFTIYNVHWIKQTPGQGLEWMGTIFPGNGDTSYNQKFKDKATLTTDKSSKTAYMQLNSLTSEDSAVYYCARWDDGNVGFAHWGQGTLVTVSA
VL: DIQMTQSPASLSASVGETVTITCRASENINNYLTWFQQKQGKSPQLLVYHAKTLAEGVPSRFSGSGSGTQFSLKINSLQPEDFGSYYCQHHYGTPPTFGGGTKLEIKR
notes: Chimera of the murine Fv of the antibody from hybridoma PTA-4058 with the Ch1-Ch3 regions of a human IgG1; expressed as complete IgG; also called anti-B7H3 AK1B
In the case of B1, the “Quotient signal (B7)/signal (buffer)” value is 294 in data set [7], under 1.5 in data set [8] and under 1.5 in [9].
